# ± gives the expanded uncertainty stated by the source.
# Test: relative permittivity at various frequencies (dimensionless)
# Conditions: Liquid, Frequency=0.001 MHz, Coaxial cylinder capacitor
smiles,measurement,setting,value
CCCCCCCC [octane],relative permittivity,"303.07 K, 5010 kPa",1.94148 ± 0.0007
same,relative permittivity,"303.07 K, 10050 kPa",1.94875 ± 0.0007
same,relative permittivity,"303.07 K, 20060 kPa",1.96184 ± 0.00072
same,relative permittivity,"303.07 K, 25030 kPa",1.9682 ± 0.00072
same,relative permittivity,"333.25 K, 5040 kPa",1.90899 ± 0.00072
same,relative permittivity,"333.25 K, 6780 kPa",1.91211 ± 0.00071
same,relative permittivity,"333.25 K, 10020 kPa",1.91777 ± 0.0007
same,relative permittivity,"333.25 K, 20050 kPa",1.93287 ± 0.0007
same,relative permittivity,"333.25 K, 25050 kPa",1.93989 ± 0.0007
same,relative permittivity,"373.16 K, 5040 kPa",1.85755 ± 0.00069
same,relative permittivity,"373.16 K, 10030 kPa",1.8684 ± 0.00069
same,relative permittivity,"373.16 K, 20030 kPa",1.88737 ± 0.00069
same,relative permittivity,"373.16 K, 25060 kPa",1.89562 ± 0.00071
same,relative permittivity,"398.17 K, 5010 kPa",1.8243 ± 0.00067
same,relative permittivity,"398.17 K, 10010 kPa",1.8374 ± 0.00067
same,relative permittivity,"398.17 K, 20050 kPa",1.85955 ± 0.00069
same,relative permittivity,"398.17 K, 25040 kPa",1.87023 ± 0.00069
